Values quoted from earlier work, collected in JP2008055197A (priority 2007, dated 2008).

O=[N+]([O-])OCC(CO[N+](=O)[O-])O[N+](=O)[O-] [ニトログリセリン]
solubility in ethyl alcohol, isopropyl alcohol and the like (ethyl alcohol, isopropyl alcohol and the like): 溶解する | solubility in water (water): 不溶
